Data as given in patent publication US12679824B2 (Hoffmann-La Roche Inc., priority 2020, dated 2026).

system: Acinetobacter baumannii ATCC17961; assay: 90% Growth Inhibitory Concentration (IC90) determination, antimicrobial susceptibility testing; type: cell-based; conditions: Acinetobacter baumannii, ATCC17961, 16 h, Acinetobacter baumannii ATCC17961; Iso-Sensitest broth; growth by optical density at 600 nm over 16h; concentration inhibiting 90% of the growth; read-out: ATCC 17961 IC90
Method: Antimicrobial Susceptibility Testing:
90% Growth Inhibitory Concentration (IC90) Determination
The in vitro antimicrobial activity of the compounds was determined according to the following procedure:
The assay used a 10-points Iso-Sensitest broth medium to measure quantitatively the in vitro activity of the compounds against Acinetobacter baumannii ATCC17961.
Stock compounds in DMSO were serially twofold diluted (e.g. range from 50 to 0.097 μM final concentration) in 384 wells microtiter plates and inoculated with 49 μl the bacterial suspension in Iso-Sensitest medium to have a final cell concentration of ~5×10^(5) CFU/ml in a final volume/well of 50 ul/well. Microtiter plates were incubated at 35±2° C.
Bacterial cell growth was determined with the measurement of optical density at λ=600 nm each 20 minutes over a time course of 16h. Growth inhibition was calculated during the logarithmic growth of the bacterial cells with determination of the concentration inhibiting 50% (IC50) and 90% (IC90) of the growth.
Table 1 provides the 90% growth inhibitory concentrations (IC90) in micromoles per liter of the compounds of present invention obtained against the strain Acinetobacter baumannii ATCC17961.

`COCCn1cnc(-n2cc(-c3cnc(C(=O)Nc4ccc(C(=O)N5CCN(C(=O)C6CCNCC6)CC5)c(Cl)c4)n3C)c(C(F)(F)F)n2)c1` [Example E3, N-[3-chloro-4-[4-(piperidine-4-carbonyl)piperazine-1-carbonyl]phenyl]-5-[1-[1-(2-methoxyethyl)imidazol-4-yl]-3-(trifluoromethyl)pyrazol-4-yl]-1-methyl-imidazole-2-carboxamide] and `Cn1cnc(-n2cc(-c3cnc(C(=O)Nc4ccc(C(=O)N5CCN(C(=O)C6CCNCC6)CC5)c(Cl)c4)n3C)c(C(F)(F)F)n2)c1` [Example E4, N-[3-chloro-4-[4-(piperidine-4-carbonyl)piperazine-1-carbonyl]phenyl]-1-methyl-5-[1-(1-methylimidazol-4-yl)-3-(trifluoromethyl)pyrazol-4-yl]imidazole-2-carboxamide] are within 1.5-fold of each other in IC90: 500 nM for the first, 680 nM for the second.

Compared with `Cc1[nH]ncc1-n1cc(-c2cnc(C(=O)Nc3ccc(C(=O)N4CCN(C(=O)C5CCNCC5)CC4)c(Cl)c3)n2C)c(C(F)(F)F)n1` [Example E5, N-[3-chloro-4-[4-(piperidine-4-carbonyl)piperazine-1-carbonyl]phenyl]-1-methyl-5-[1-(5-methyl-1H-pyrazol-4-yl)-3-(trifluoromethyl)pyrazol-4-yl]imidazole-2-carboxamide], `Cc1ccc(-n2cc(-c3cnc(C(=O)Nc4ccc(C(=O)N5CCN(C(=O)C6CCNCC6)CC5)c(Cl)c4)n3C)c(C(F)(F)F)n2)nc1` [Example E6, N-[3-chloro-4-[4-(piperidine-4-carbonyl)piperazine-1-carbonyl]phenyl]-1-methyl-5-[1-(5-methyl-2-pyridyl)-3-(trifluoromethyl)pyrazol-4-yl]imidazole-2-carboxamide] is 4-fold lower in IC90: 1400 nM for the first, 350 nM for the second.

Compared with `COc1ccc(-n2cc(-c3cnc(C(=O)Nc4ccc(C(=O)N5CCN(C(=O)[C@@H]6CCNC[C@H]6O)CC5)c(Cl)c4)n3C)c(C(F)(F)F)n2)nc1` [Example F4, N-[3-chloro-4-[4-[(3S,4R)-3-hydroxypiperidine-4-carbonyl]piperazine-1-carbonyl]phenyl]-5-[1-(5-methoxy-2-pyridyl)-3-(trifluoromethyl)pyrazol-4-yl]-1-methyl-imidazole-2-carboxamide], `Cn1c(-c2cn(-c3ccc(N)cn3)nc2C(F)(F)F)cnc1C(=O)Nc1ccc(C(=O)N2CCC(C(=O)N3CCNC(CO)C3)CC2)c(Cl)c1` (stereo not shown) [Example H2, 5-[1-(5-amino-2-pyridyl)-3-(trifluoromethyl)pyrazol-4-yl]-N-[3-chloro-4-[4-[3-(hydroxymethyl)piperazine-1-carbonyl]piperidine-1-carbonyl]phenyl]-1-methyl-imidazole-2-carboxamide] is 2.8-fold higher in IC90: 310 nM for the first, 880 nM for the second.

First: Cn1c(-c2cn(-c3ccc(N)cn3)nc2C(F)(F)F)cnc1C(=O)Nc1ccc(C(=O)NCc2cc[nH]n2)c(Cl)c1 [Example I2, 5-[1-(5-amino-2-pyridyl)-3-(trifluoromethyl)pyrazol-4-yl]-N-[3-chloro-4-(1H-pyrazol-3-ylmethylcarbamoyl)phenyl]-1-methyl-imidazole-2-carboxamide]
Second: Cn1c(-c2cn(-c3ccc(N)cn3)nc2C(F)(F)F)cnc1C(=O)Nc1ccc(C(=O)NCCCN)c(Cl)c1 [Example Z2, N-[4-(3-aminopropylcarbamoyl)-3-chloro-phenyl]-5-[1-(5-amino-2-pyridyl)-3-(trifluoromethyl)pyrazol-4-yl]-1-methyl-imidazole-2-carboxamide]
The IC90 of the first is 2.5-fold lower: 400 nM for the first, 980 nM for the second.

Compared with `Cn1c(-c2cn(-c3ccc(N)cn3)nc2C(F)(F)F)cnc1C(=O)Nc1ccc(C(=O)NCC2CCNCC2)c(Cl)c1` [Example Z3, 5-[1-(5-amino-2-pyridyl)-3-(trifluoromethyl)pyrazol-4-yl]-N-[3-chloro-4-(4-piperidylmethylcarbamoyl)phenyl]-1-methyl-imidazole-2-carboxamide], `Cn1c(-c2cn(-c3ccc(N)cn3)nc2C(F)(F)F)cnc1C(=O)Nc1ccc(C(=O)NC2(CN)CC2)c(Cl)c1` [Example Z6, N-[4-[[1-(aminomethyl)cyclopropyl]carbamoyl]-3-chloro-phenyl]-5-[1-(5-amino-2-pyridyl)-3-(trifluoromethyl)pyrazol-4-yl]-1-methyl-imidazole-2-carboxamide] is 1.9-fold higher in IC90: 500 nM for the first, 930 nM for the second.

`CNC1CCN(C(=O)c2ccc(NC(=O)c3ncc(-c4cn(-c5ccc(N)cn5)nc4C(F)(F)F)n3C)cc2Cl)CC1` [Example Z4, 5-[1-(5-amino-2-pyridyl)-3-(trifluoromethyl)pyrazol-4-yl]-N-[3-chloro-4-[4-(methylamino)piperidine-1-carbonyl]phenyl]-1-methyl-imidazole-2-carboxamide] and `Cn1c(-c2cn(-c3ccc(N)cn3)nc2C(F)(F)F)cnc1C(=O)Nc1ccc(C(=O)N2CC[C@@H](CN)C2)c(Cl)c1` [Example Z7, N-[4-[(3S)-3-(aminomethyl)pyrrolidine-1-carbonyl]-3-chloro-phenyl]-5-[1-(5-amino-2-pyridyl)-3-(trifluoromethyl)pyrazol-4-yl]-1-methyl-imidazole-2-carboxamide] are within 1.5-fold of each other in IC90: 220 nM for the first, 250 nM for the second.

Compared with `Cn1c(-c2cn(-c3ccc(N)cn3)nc2C(F)(F)F)cnc1C(=O)Nc1ccc(C(=O)NC2(CO)CCNC2)c(Cl)c1` (stereo not shown) [Example Z5, 5-[1-(5-amino-2-pyridyl)-3-(trifluoromethyl)pyrazol-4-yl]-N-[3-chloro-4-[(3-methylolpyrrolidin-3-yl)carbamoyl]phenyl]-1-methyl-imidazole-2-carboxamide], `Cn1c(-c2cn(-c3ccc(N)cn3)nc2C(F)(F)F)cnc1C(=O)Nc1ccc(C(=O)N2CCC3(CCNC3)CC2)c(Cl)c1` [Example Z8, 5-[1-(5-amino-2-pyridyl)-3-(trifluoromethyl)pyrazol-4-yl]-N-[3-chloro-4-(2,8-diazaspiro[4.5]decane-8-carbonyl)phenyl]-1-methyl-imidazole-2-carboxamide] is 4.9-fold lower in IC90: 1800 nM for the first, 370 nM for the second.

In the case of `COCc1c[nH]nc1-n1cc(-c2cnc(C(=O)Nc3ccc(C(=O)N4CCN(C(=O)C5CCN(C)CC5)CC4)c(Cl)c3)n2C)c(C(F)(F)F)n1` [Example Z9, N-[3-chloro-4-[4-(1-methylpiperidine-4-carbonyl)piperazine-1-carbonyl]phenyl]-5-[1-[4-(methoxymethyl)-1H-pyrazol-3-yl]-3-(trifluoromethyl)pyrazol-4-yl]-1-methyl-imidazole-2-carboxamide], the IC90 is reported as 1080 nM.

same assay, conditions: Acinetobacter baumannii, ATCC17961, 16 h, read-out: ATCC 17961 IC90

`Cn1c(-c2cn(-c3ncccn3)nc2C(F)(F)F)cnc1C(=O)Nc1ccc(C(=O)N2CCN(C(=O)[C@H]3[C@@H]4CNC[C@@H]43)CC2)c(Cl)c1` [Example F1, N-[4-[4-[(1R,5S)-3-Azabicyclo[3.1.0]hexane-6-carbonyl]piperazine-1-carbonyl]-3-chloro-phenyl]-1-methyl-5-[1-pyrimidin-2-yl-3-(trifluoromethyl)pyrazol-4-yl]imidazole-2-carboxamide] and `Cn1c(-c2cn(-c3ncccn3)nc2C(F)(F)F)cnc1C(=O)Nc1ccc(C(=O)N2CCN(C(=O)C3CCN(CC4CNC4)CC3)CC2)c(Cl)c1` [Example G1, N-[4-[4-[1-(Azetidin-3-ylmethyl)piperidine-4-carbonyl]piperazine-1-carbonyl]-3-chloro-phenyl]-1-methyl-5-[1-pyrimidin-2-yl-3-(trifluoromethyl)pyrazol-4-yl]imidazole-2-carboxamide] are within 1.5-fold of each other in IC90: 450 nM for the first, 390 nM for the second.

`Cn1c(-c2cn(-c3ccc(N)cn3)nc2C(F)(F)F)cnc1C(=O)Nc1ccc(C(=O)N2CCC(C(=O)N3CCNCC3)CC2)c(Cl)c1` [Example H1, 5-[1-(5-Amino-2-pyridyl)-3-(trifluoromethyl)pyrazol-4-yl]-N-[3-chloro-4-[4-(piperazine-1-carbonyl)piperidine-1-carbonyl]phenyl]-1-methyl-imidazole-2-carboxamide] and `CCNc1ccc(-n2cc(-c3cnc(C(=O)Nc4ccc(C(=O)N5CCN(C(=O)C6CCNCC6)CC5)c(Cl)c4)n3C)c(C(F)(F)F)n2)nc1` [Example K1, N-[3-chloro-4-[4-(piperidine-4-carbonyl)piperazine-1-carbonyl]phenyl]-5-[1-[5-(ethylamino)-2-pyridyl]-3-(trifluoromethyl)pyrazol-4-yl]-1-methyl-imidazole-2-carboxamide] are within 1.5-fold of each other in IC90: 480 nM for the first, 500 nM for the second.

First: Cn1c(-c2cn(-c3ccc(N)cn3)nc2C(F)(F)F)cnc1C(=O)Nc1ccc(C(=O)N2CCC(CN3CCNCC3=O)CC2)c(Cl)c1 [Example I1, 5-[1-(5-Amino-2-pyridyl)-3-(trifluoromethyl)pyrazol-4-yl]-N-[3-chloro-4-[4-[(2-oxopiperazin-1-yl)methyl]piperidine-1-carbonyl]phenyl]-1-methyl-imidazole-2-carboxamide]
Second: Cn1c(-c2cn(-c3ccc(N)cn3)nc2C(F)(F)F)cnc1C(=O)Nc1ccc(C(=O)N2CC[C@H](CN)C2)c(Cl)c1 [Example Z1, N-[4-[(3R)-3-(aminomethyl)pyrrolidine-1-carbonyl]-3-chloro-phenyl]-5-[1-(5-amino-2-pyridyl)-3-(trifluoromethyl)pyrazol-4-yl]-1-methyl-imidazole-2-carboxamide]
The IC90 of the first is 3.1-fold higher: 1500 nM for the first, 480 nM for the second.

In the case of `Cn1c(-c2cn(-c3ccc(N)cn3)nc2C(F)(F)F)cnc1C(=O)Nc1ccc(C(=O)N2CCN(C(=O)[C@@H]3CC(O)CCN3)CC2)c(Cl)c1` (stereo partly shown) [Example J1], the IC90 is reported as 580 nM.
